As a reminder, the IC50 is the concentration that inhibits the measured activity by half.

For six compounds, IC50 results are on record in patent US6262053A, “Melamine derivatives as potent anti-cancer agents” (Parker Hughes Institute, priority 1999, dated 2001).

Structures are written as SMILES. Where two headings read alike, the source gives them in different places.

Holding throughout (type): cell-based
One assay relates to NALM-6 leukemia cells. Description: MTT cytotoxicity assay, NALM-6 leukemia cells. Conditions: Homo sapiens, 24-36 hours at 37° C. On the procedure: (§1) Cytotoxicity of various compounds against tumor cells was performed using the MTT (3-[4,5-dimethylthiazol-2-yl]-2,5-diphenyl tetrazolium bromide) assay (Boehringer Mannheim Corp., Indianapolis, Ind.). Unless otherwise specified, all cell lines were obtained from the American Type Culture Collection (ATCC). Briefly, exponentially growing cells were seeded into a 96-well plate at a density of 2.5×10^4 cells/well and incubated for 36 hours at 37° C. prior to drug exposure. On the day of treatment, culture medium was carefully aspirated from the wells and replaced with fresh medium containing WHI-P239 at concentrations ranging from 0.1 to 250 μM. Triplicate wells were used for each treatment.
(§2) Human leukemic cell lines (NALM-6, MOLT-3), human breast tumor cells (BT20), prostate cancer cells (PC3), and glioblastoma cells (U373) were obtained from the American Type Culture Collection and maintained as a continuous cell line in Dulbecco's modified Eagles's medium supplemented with 10% fetal bovine serum and antibiotics.
(§3) The cells were incubated with the various compounds for 24-36 hours at 37° C. in a humidified 5% CO2 atmosphere. To each well, 10 μl of MTT (0.5 mg/ml final concentration) was added and the plates were incubated at 37° C. for 4 hours to allow MTT to form formazan crystals by reacting with metabolically active cells. The formazan crystals were solubilized overnight at 37° C. in a solution containing 10% SDS in 0.01 M HCl. The absorbence of each well was measured in a microplate reader (Labsystems) at 540 nm and a reference wavelength of […]. To translate the OD540 values into the number of live cells in each well, the OD540 values were compared to those on standard OD540 -versus-cell number curves generated for each cell line. The percent survival was calculated using the formula shown below. [formula]
A general note: Tetrazolium dyes change colour on reduction, which living cells bring about.

In another assay the test system is U373 glioblastoma cells. Description: MTT cytotoxicity assay, U373 glioblastoma (brain tumor) cells. Conditions: Homo sapiens, U373 MG, 24-36 hours at 37° C. The protocol:
as §1, §2, §3

Assay [1] relates to BT-20 breast cancer cells. The assay can be described thus: MTT cytotoxicity assay, BT-20 breast cancer cells. Conditions: Homo sapiens, 24-36 hours at 37° C. On the procedure: as §1, §2, §3
The subject of assay [2] is PC-3 prostate cancer cells. The assay can be described thus: MTT cytotoxicity assay, PC-3 prostate cancer cells. Conditions: 24-36 hours at 37° C. On the procedure: as §1, §2, §3

As for `Oc1ccccc1Nc1nc(Nc2ccccc2O)nc(Nc2ccccc2O)n1` [WHI-P205, 2,4,6-Tri(2'-hydroxylphenyl)-amino-1,3,5-triazine], the IC50 in the assay on NALM-6 leukemia cells (read-out: IC50 NALM-6 Leukemia) came to 21.5 µM; with U373 glioblastoma cells, 224 µM; in assay [1], 108 µM; in assay [2], 102 µM.

As to `Oc1cccc(Nc2nc(Nc3cccc(O)c3)nc(Nc3cccc(O)c3)n2)c1` [WHI-P233, 2,4,6-Tri(3'-hydroxylphenyl)-amino-1,3,5-triazine], the IC50 was determined as 5.1 µM in the assay on NALM-6 leukemia cells (read-out: IC50 NALM-6 Leukemia); 5.1 µM in the assay with NALM-6 leukemia cells (leukemia cells, read-out: IC50 antileukemic potency (unit printed EM)); 104 µM in the assay with U373 glioblastoma cells; 66.1 µM in assay [1]; 45.1 µM in assay [2].

`Oc1ccc(Nc2nc(Nc3ccc(O)cc3)nc(Nc3ccc(O)cc3)n2)cc1` [WHI-P199, 2,4,6-Tri(4'-hydroxylphenyl)-amino-1,3,5-triazine]: the IC50 was above 250 µM with NALM-6 leukemia cells (read-out: IC50 NALM-6 Leukemia), above 250 µM with U373 glioblastoma cells, 240 µM in assay [1] and 221 µM in assay [2].

On to `Oc1c(Cl)cc(Nc2nc(Nc3cc(Cl)c(O)c(Cl)c3)nc(Nc3cc(Cl)c(O)c(Cl)c3)n2)cc1Cl` [WHI-P239, 2,4,6-Tri(3',5'-dichloro-4'-hydroxylphenyl)-amino-1,3,5-triazine], for which the 50% inhibitory concentration (IC50) in the assay with NALM-6 leukemia cells (read-out: IC50 NALM-6 Leukemia) amounted to 9.8 µM; in the assay with U373 glioblastoma cells, 155 µM; in assay [1], 13.2 µM; in assay [2], 31.5 µM.

Turning to `Oc1c(Br)cc(Nc2nc(Nc3cc(Br)c(O)c(Br)c3)nc(Nc3cc(Br)c(O)c(Br)c3)n2)cc1Br` [WHI-P200, 2,4,6-Tri(3',5'-dibromo-4'-hydroxylphenyl)-amino-1,3,5-triazine], the IC50 in the assay on NALM-6 leukemia cells (read-out: IC50 NALM-6 Leukemia) was 10.1 µM; with U373 glioblastoma cells it was above 250 µM; in assay [1], 27.1 µM; in assay [2] it was 64.5 µM.

Regarding `Brc1cccc(Nc2nc(Nc3cccc(Br)c3)nc(Nc3cccc(Br)c3)n2)c1` [WHI-P206, 2,4,6-Tri(3'-bromophenyl)-amino-1,3,5-triazine], the IC50 (with NALM-6 leukemia cells (read-out: IC50 NALM-6 Leukemia); in the assay with U373 glioblastoma cells; in assay [1]; in assay [2]) was above 250 µM each time.
